In patent publication US11466054B2, “Inhibitors of metastasis” (BIOMARCK PHARMACEUTICALS LTD., priority 2013, dated 2022):
Where no end group is shown, it is not given here.

What was measured:
CL1-5 cells = assay: Transwell migration assay, CL1-5 cells pretreated with peptide; format: cell-based, human; details: 12 hours; for cell number: control approximately 105; for migration index: control=1.0;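 for migration index: index equals control cell count divided by treated cell count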
Method: CL1-5 cells, an aggressively metastatic cell line derived from a human adenocarcinoma, were cultured in RPMI 1640 media with 10% FBS, 37° C. at 95% […]/5% CO2 until ready for use. Transwell plates (24-well, 8-um pore size; Costar, Cambridge, Mass., USA) were used to conduct the migration assay. The lower chambers of the Transwell plates were filled with 600 μl of basal media containing 10% FBS. The cells (1×10^5) were pretreated with 50 or 100 μM of the indicated test peptide for 30 min, and then suspended in 100 μl of basal media containing 1% BSA and added to the upper chamber, and the cells then were incubated at 37° C. for 12 hr. The cells on the upper surface of the filters were removed using cotton swabs, and the cells that migrated to the lower surface of the filters were washed, fixed, and stained with hematoxylin and counted under the microscope. The percent change in migration was determined by counting the number of cells that migrated to the lower surface of the filters. At least 3 separate microscopic fields were counted per membrane (n=4).
Primary CL1-5 cells originated from human adenocarcinoma lung cancer Transwell plates with 24-wells, 8-μ pore size (Costar, Cambridge, Mass., USA) were used to conduct the migration assay. The lower chambers of the transwell plates were filled with 600 μL of basal media containing 10% FBS. The cells (1-2×10^5) were suspended in 100 μL of basal media containing 1% BSA. The test peptide at desired concentration was added to the upper chamber directly or after preincubation with cancer cells. The plates were then incubated at 37° C. for 12 hours. The cells on the upper surface of the filters were removed using cotton swabs. The cells that migrated to the lower surface of the filters were washed, fixed, and stained with hematoxylin and counted under the microscope. At least five separate microscopic fields are counted per membrane (n=3). The percent change in migration was determined by counting the number of cells that migrated to the lower surface of the filters.
The count means the actual number of cells which migrated to the lower chamber and counted by a light microscope at 40× magnification, presented as the mean number of cells in 10 randomly chosen fields for each treatment.
The “index” was calculated by dividing the number of cells that migrated in the presence of peptides by the number of cells that migrated randomly (control group). […]. This calculation can reflect the extent that the migration of cells was blocked by 30 minute pretreatment with MANS-related peptides.

[1] = system: Human adenocarcinoma cells (PC-9); assay: Orthotopic lung cancer implantation model in SCID mice, aerosol from day 4 or day 15 (Example 5); format: in vivo; details: for total number of tumor nodules found in all tissues: FIG. 14
Method: In this study, inhibition of lung cancer metastasis by BIO-11006 was investigated in an orthotopic lung cancer implantation model in SCID mice. Human adenocarcinoma cells (PC-9) (1-2×10^5) were suspended in 40 μL of PBS containing 0.5 mg/mL of Matrigel™ (BD Bioscience) and injected into the left lung of SCID mice (n=3) using a 29 gauge needle. BIO-11006 was administered starting either 4 days or 15 days post cancer cell inoculation by aerosol using 100 μM solution in PBS by Nebulizer Delivery System (Aeroneb Lab) over 30 min once daily for 25 days post cancer cell inoculation. At end of the experiment, the mice were sacrificed and lungs, heart, and diaphragm tissues collected and number of tumor nodules in each tissue measured. The results of this experiment are presented graphically in FIGS. 13 and 14. […] When the treatment was initiated at 15 days post inoculation of cancer cells, the inhibition of tumor metastasis was about 50% in the lungs, heart, and diaphragm. FIG. 14 depicts the total number of tumor nodules found in all tissues when peptide treatment was started at 15 days post cancer cell inoculation or 4 days post cancer cell inoculation.

[2] = CL1-5, 50 μmolar pretreatment, FIG. 9
[3] = CL1-5, 100 μmolar pretreatment, FIG. 10
[4] = aerosol 100 μM once daily, started 4 days post inoculation, FIG. 13

## N-acetyl-GAQFSKTAAK (Ac-GAQFSKTAAK; listed as Homo sapiens) [BIO-11006]
CL1-5 cells; [2]
  cell number: approximately 50
  migration index: approximately 2
CL1-5 cells; [3]
  cell number: approximately 50
  migration index: approximately 2.1
[1]; aerosol 100 μM once daily, initiated 15 days post inoculation, FIG. 13
  inhibition of tumor metastasis in the lungs, heart, and diaphragm: about 50%
[1]; [4]
  inhibition of tumor metastasis in the left lung, heart, and diaphragm: 60-90%
  inhibition of tumor metastasis in the right lung: 100%
[1]; treatment starting at 4 days post cancer cell inoculation
  total number of tumor nodules found in all tissues: even further reduced tumor nodules
[1]; treatment starting at 15 days post cancer cell inoculation
  total number of tumor nodules found in all tissues: reduced tumor nodules
